Results: patent publication US9920010B2, “CXCR7 receptor modulators” (IDORSIA PHARMACEUTICALS LTD, priority 2013, dated 2018)

Target: T1, CXCR7 (Homo sapiens, UniProt P25106)
T1 construct: host or cells: CHO-K1 (PathHunter CHO-K1 CXCR7 b-arrestin cell line, stably transfected)
Assay: PathHunter CHO-K1 CXCR7 b-arrestin recruitment assay (CXCR7 agonistic activity)
Format: cell-based
Conditions: PathHunter CHO-K1 CXCR7 b-arrestin cell line
Procedure, shortened: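 Stable CHO-K1 line with C-terminally ProLink-tagged CXCR7 and β-arrestin 2–EA fusion; β-arrestin recruitment restores β-gal activity, read by chemiluminescence after 1 h RT detection. Cells seeded 24 h, starved in OPTIMEM 3–4 h, exposed to compounds 90 min at 37 °C in HBSS/HEPES/BSA. Geometric-mean EC50 from repeated measurements.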

T1 sequence (P25106 whole entry): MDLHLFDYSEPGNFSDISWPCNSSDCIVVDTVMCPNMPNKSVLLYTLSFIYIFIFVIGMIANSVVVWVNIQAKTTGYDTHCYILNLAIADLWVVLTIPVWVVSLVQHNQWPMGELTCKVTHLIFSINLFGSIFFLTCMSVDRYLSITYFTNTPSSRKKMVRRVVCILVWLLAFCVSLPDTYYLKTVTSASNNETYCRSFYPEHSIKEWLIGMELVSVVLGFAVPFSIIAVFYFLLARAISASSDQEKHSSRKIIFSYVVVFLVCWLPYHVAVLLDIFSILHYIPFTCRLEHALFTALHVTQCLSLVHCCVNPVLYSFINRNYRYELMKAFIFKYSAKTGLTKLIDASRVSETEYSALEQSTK
T1 sequence (P32121 whole entry partner): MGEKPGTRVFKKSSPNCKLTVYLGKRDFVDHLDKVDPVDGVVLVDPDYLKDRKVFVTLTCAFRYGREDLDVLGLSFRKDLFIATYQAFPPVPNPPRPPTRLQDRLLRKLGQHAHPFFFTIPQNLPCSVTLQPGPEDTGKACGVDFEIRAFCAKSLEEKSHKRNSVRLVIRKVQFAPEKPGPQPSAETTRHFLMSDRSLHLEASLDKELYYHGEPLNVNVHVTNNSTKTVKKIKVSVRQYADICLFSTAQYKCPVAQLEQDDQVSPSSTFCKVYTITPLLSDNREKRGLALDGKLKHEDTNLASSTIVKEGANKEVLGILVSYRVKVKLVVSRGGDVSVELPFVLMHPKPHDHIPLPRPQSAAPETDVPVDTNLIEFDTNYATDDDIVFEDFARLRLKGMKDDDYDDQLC

Structure (SMILES) | EC50 [nM]
CCN(CCN(Cc1ccccc1C(F)(F)F)C(=O)CNc1cccc2c1CCN(CC1CC1)C2)C(=O)OC(C)(C)C [Example 232, {2-[[2-(2-Cyclopropylmethyl-1,2,3,4-tetrahydro-isoquinolin-5-ylamino)-acetyl]-(2-trifluoromethyl-benzyl)-amino]-ethyl}-ethyl-carbamic acid tert-butyl ester] | 162
CN(C)CCN(Cc1ccnn1C)C(=O)CNc1cccc2c1CCN(CC1CC1)C2 [Example 264, 2-(2-Cyclopropylmethyl-1,2,3,4-tetrahydro-isoquinolin-5-ylamino)-N-(2-dimethylamino-ethyl)-N-(2-methyl-2H-pyrazol-3-ylmethyl)-acetamide] | 374
CC(C)OC(=O)N1CCc2c(cccc2NCC(=O)N(CCN(C)C)Cc2ccccc2)C1 [compound 121] | 101
CNCCN(Cc1ncccc1C(F)(F)F)C(=O)CNc1cccc2c1CCN(C(=O)OCCOC)C2 [compound 427] | 106
CN(CCN(Cc1ccccc1C(F)(F)F)C(=O)CNc1cccc2c1CCN(CC1CC1)C2)C(=O)OC(C)(C)C [Example 83, {2-[[2-(2-Cyclopropylmethyl-1,2,3,4-tetrahydro-isoquinolin-5-ylamino)-acetyl]-(2-trifluoromethyl-benzyl)-amino]-ethyl}-methyl-carbamic acid tert-butyl ester] | 88
COCCN1CCc2c(CCC(=O)N(CCN3CCC(F)(F)CC3)Cc3ncccc3Cl)cccc2C1 [Example 345, N-(3-Chloro-pyridin-2-ylmethyl)-N-[2-(4,4-difluoro-piperidin-1-yl)-ethyl]-3-[2-(2-methoxy-ethyl)-1,2,3,4-tetrahydro-isoquinolin-5-yl]-propionamide] | 400
O=C(CNc1cccc2c1CN(CC1CC1)CC2)N(CCN1CCCC1)Cc1ccccc1C(F)(F)F [compound 565, 2-(2-Cyclopropylmethyl-1,2,3,4-tetrahydro-isoquinolin-8-ylamino)-N-(2-pyrrolidin-1-yl-ethyl)-N-(2-trifluoromethyl-benzyl)-acetamide] | 4
CN(CCN(Cc1ccccc1C(F)(F)F)C(=O)CNc1cccc2c1CCN(CC1CC1)C2)C1CCOC1 (racemic) [compound 448] | 2
CN(C)CCN(Cc1ccccc1C(F)(F)F)C(=O)CNc1cccc2c1CN(CC(F)(F)F)CC2 [Example 558, N-(2-Dimethylamino-ethyl)-2-[2-(2,2,2-trifluoro-ethyl)-1,2,3,4-tetrahydro-isoquinolin-8-ylamino]-N-(2-trifluoromethyl-benzyl)-acetamide] | 59
CCN1CCc2cccc(NCC(=O)N(CCN(C)C)Cc3ccc(Cl)cc3)c2C1 [compound 502] | 113
C#CCOC(=O)N1CCc2c(cccc2NCC(=O)N(CCNC)Cc2ncccc2C(F)(F)F)C1 [compound 421, 5-({[(2-Methylamino-ethyl)-(3-trifluoromethyl-pyridin-2-ylmethyl)-carbamoyl]-methyl}-amino)-3,4-dihydro-1H-isoquinoline-2-carboxylic acid prop-2-ynyl ester] | 29
C=CCOC(=O)N1CCc2c(cccc2NCC(=O)N(CCNC)Cc2ncccc2C(F)(F)F)C1 [compound 422, 5-({[(2-Methylamino-ethyl)-(3-trifluoromethyl-pyridin-2-ylmethyl)-carbamoyl]-methyl}-amino)-3,4-dihydro-1H-isoquinoline-2-carboxylic acid allyl ester] | 33
CCC(=O)N1CCc2c(cccc2NCC(=O)N(Cc2ccccc2)Cc2nccn2C)C1 [Example 26, N-Benzyl-N-(1-methyl-1H-imidazol-2-ylmethyl)-2-(2-propionyl-1,2,3,4-tetrahydro-isoquinolin-5-ylamino)-acetamide] | 442
CNCCN(Cc1ccccc1C(F)(F)F)C(=O)CNc1cccc2c1CCN(C(=O)OC(C)C)C2 [compound 399] | 64
CN(C)CCN(Cc1ccccc1C(F)(F)F)C(=O)CNc1cccc2c1CN(C)CC2 [compound 564, N-(2-Dimethylamino-ethyl)-2-(2-methyl-1,2,3,4-tetrahydro-isoquinolin-8-ylamino)-N-(2-trifluoromethyl-benzyl)-acetamide] | 17
COCCN1CCc2c(/C=C/C(=O)N(Cc3ccccc3C(F)(F)F)CC(C)(C)O)cccc2C1 [Example 323, (E)-N-(2-Hydroxy-2-methyl-propyl)-3-[2-(2-methoxy-ethyl)-1,2,3,4-tetrahydro-isoquinolin-5-yl]-N-(2-trifluoromethyl-benzyl)-acrylamide] | 182
CC(C)CCN(Cc1ccccc1)C(=O)CNc1cccc2c1CCN(C)C2 [compound 132] | 130

Structure (SMILES) | EC50 [nM]
Cc1csc(CN(Cc2ccccc2C(F)(F)F)C(=O)CNc2cccc3c2CCN(CC2CC2)C3)n1 [Example 77, 2-(2-Cyclopropylmethyl-1,2,3,4-tetrahydro-isoquinolin-5-ylamino)-N-(4-methyl-thiazol-2-ylmethyl)-N-(2-trifluoromethyl-benzyl)-acetamide] | 46
CCCCN(C)CCN(Cc1ccccc1)C(=O)CNc1cccc2c1CCN(C(=O)CC)C2 [Example 31, N-Benzyl-N-[2-(butyl-methyl-amino)-ethyl]-2-(2-propionyl-1,2,3,4-tetrahydro-isoquinolin-5-ylamino)-acetamide] | 13
CN(C)CCN(Cc1ncccc1Br)C(=O)CNc1cccc2c1CN(C(=O)[C@H]1C[C@H]1F)CC2 (relative stereo) [compound 460] | 85
O=C(/C=C/c1cccc2c1CCN(C(=O)[C@H]1C[C@H]1F)C2)N(CCN1CCC(F)(F)CC1)Cc1ncccc1Cl (racemic) [Example 332, rac-(E)-N-(3-Chloro-pyridin-2-ylmethyl)-N-[2-(4,4-difluoro-piperidin-1-yl)-ethyl]-3-[2-((1R*,2R*)-2-fluoro-cyclopropanecarbonyl)-1,2,3,4-tetrahydro-isoquinolin-5-yl]-acrylamide] | 96
CN(C)CCN(Cc1ncccc1Br)C(=O)CNc1cccc2c1C(C)(C)CN(CC1CC1)C2 [Example 575, N-(3-Bromo-pyridin-2-ylmethyl)-2-(2-cyclopropylmethyl-4,4-dimethyl-1,2,3,4-tetrahydro-isoquinolin-5-ylamino)-N-(2-dimethylamino-ethyl)-acetamide] | 0.9
CN(C)CCN(Cc1ccccc1C(F)(F)F)C(=O)CNc1cccc2c1CCN(C(=O)C1(C(F)(F)F)CC1)C2 [Example 571, N-(2-Dimethylamino-ethyl)-N-(2-trifluoromethyl-benzyl)-2-[2-(1-trifluoromethyl-cyclopropanecarbonyl)-1,2,3,4-tetrahydro-isoquinolin-5-ylamino]-acetamide] | 86
CC(C)(C)CCN(Cc1ncccc1C(F)(F)F)C(=O)CNc1cccc2c1CCN(CC1CC1)C2 [Example 275, 2-(2-Cyclopropylmethyl-1,2,3,4-tetrahydro-isoquinolin-5-ylamino)-N-(3,3-dimethyl-butyl)-N-(3-trifluoromethyl-pyridin-2-ylmethyl)-acetamide] | 43
CN(C)CCN(Cc1ccccc1C(F)(F)F)C(=O)CNc1cccc2c1CN(C(=O)N1CCCC1)CC2 [compound 561, N-(2-Dimethylamino-ethyl)-2-[2-(pyrrolidine-1-carbonyl)-1,2,3,4-tetrahydro-isoquinolin-8-ylamino]-N-(2-trifluoromethyl-benzyl)-acetamide] | 7
CCC(=O)N1CCc2c(cccc2NCC(=O)N(CCc2ccccc2)CCN(C)C)C1 [Example 17, N-(2-Dimethylamino-ethyl)-N-phenethyl-2-(2-propionyl-1,2,3,4-tetrahydro-isoquinolin-5-ylamino)-acetamide] | 135
CCN1CCc2cccc(NCC(=O)N(CCN(C)C)Cc3ncccc3C(F)(F)F)c2C1 [compound 531, N-(2-Dimethylamino-ethyl)-2-(2-ethyl-1,2,3,4-tetrahydro-isoquinolin-8-ylamino)-N-(3-trifluoromethyl-pyridin-2-ylmethyl)-acetamide] | 6
COCCN1CCc2c(CCC(=O)N(Cc3ccccc3C(F)(F)F)CC3(C)COC3)cccc2C1 [Example 343, 3-[2-(2-Methoxy-ethyl)-1,2,3,4-tetrahydro-isoquinolin-5-yl]-N-(3-methyl-oxetan-3-ylmethyl)-N-(2-trifluoromethyl-benzyl)-propionamide] | 415
COCCN1CCc2c(CCC(=O)N(CCC(C)(C)O)Cc3ccccc3C(F)(F)F)cccc2C1 [Example 344, N-(3-Hydroxy-3-methyl-butyl)-3-[2-(2-methoxy-ethyl)-1,2,3,4-tetrahydro-isoquinolin-5-yl]-N-(2-trifluoromethyl-benzyl)-propionamide] | 438
C=CCN1CCc2cccc(NCC(=O)N(CCN(C)CCF)Cc3ccccc3C(F)(F)F)c2C1 [compound 465, 2-(2-Allyl-1,2,3,4-tetrahydro-isoquinolin-8-ylamino)-N-{2-[(2-fluoro-ethyl)-methyl-amino]-ethyl}-N-(2-trifluoromethyl-benzyl)-acetamide] | 39
CN(C)CCN(Cc1ccccc1C(F)(F)F)C(=O)CNc1cccc2c1C(C)(C)CN(C(=O)OC(C)(C)C)C2 [Example 90, 5-({[(2-Dimethylamino-ethyl)-(2-trifluoromethyl-benzyl)-carbamoyl]-methyl}-amino)-4,4-dimethyl-3,4-dihydro-1H-isoquinoline-2-carboxylic acid tert-butyl ester] | 32
CCC(=O)N1CCc2c(cccc2NCC(=O)N(CCN(C)C)Cc2ccc(C)cc2)C1 [Example 16, N-(2-Dimethylamino-ethyl)-N-(4-methyl-benzyl)-2-(2-propionyl-1,2,3,4-tetrahydro-isoquinolin-5-ylamino)-acetamide] | 63
COCCN1CCc2c(cccc2NCC(=O)N(Cc2ccccc2C(F)(F)F)CC(O)COC)C1 (stereo not drawn) [Example 299, N-(2-Hydroxy-3-methoxy-propyl)-2-[2-(2-methoxy-ethyl)-1,2,3,4-tetrahydro-isoquinolin-5-ylamino]-N-(2-trifluoromethyl-benzyl)-acetamide] | 291
